Results taken from patent US20100055799A1, “TEST AGENT FOR DIAGNOSING DYSPEPSIA” (priority 2006, published 2010).
Like-named read-outs stand apart in the source and are kept apart here.

Columns and labels:
[1] = test system: gastric-emptying function; experiment: 13C breath test in delayed gastric-emptying model rats (propantheline pretreatment); format: in vivo, rat; details: propantheline 1 mg/kg i.v. 5 min before 10 mg/kg oral 2-13C uracil; expired air 5-60 min
Experimental: “Propantheline”, an anticholinergic agent, was intravenously administered to rats (female, Wister rat, 8 weeks old: n=3) in such an amount of 1 mg/kg to obtain model animals whose gastric-emptying function was decreased (a delayed gastric-emptying model). […] The expired air samples were collected over time, and the ^13CO2 concentration in each expired air sample was measured.

[2] = format: physicochemical
[3] = 2-13C uracil concentration in plasma of patients suspected of post-operative gastroparesis; format: in vivo, human; details: 20 minutes after oral 100 mg 2-13C uracil (Example 2 granules); patients with decreased or insufficient gastric-emptying function versus normal type

With CC(C)[N+](C)(CCOC(=O)C1c2ccccc2Oc2ccccc21)C(C)C [propantheline, Propantheline] the “13CO2 concentration (Δ13C value) excreted in expired air versus normal rats” value [1] was “significantly lower”.

For O=c1cc[nH]c(=O)[nH]1 [uracil], the “change of solubility depending on the pH of the solution” value ([2]; pH 2) was “almost unchanged”.

O=c1cc[nH][13c](=O)[nH]1 [2-^13C uracil] gave a Solubility ([2]; pH 2) of 0.28 w/v %, a Solubility ([2]; pH 4) of 0.28 w/v % and a Solubility ([2]; pH 6) of 0.28 w/v %. The Solubility ([2]; pH 8) was 0.29 w/v % and the “2-13C uracil concentrations in plasma” value [3] was “lowered”.
